# pIC50: −log10 of the molar value.
# Target: T1, PIP4K2C (Homo sapiens, UniProt Q8TBX8)
# T1 sequence (Q8TBX8 1-421): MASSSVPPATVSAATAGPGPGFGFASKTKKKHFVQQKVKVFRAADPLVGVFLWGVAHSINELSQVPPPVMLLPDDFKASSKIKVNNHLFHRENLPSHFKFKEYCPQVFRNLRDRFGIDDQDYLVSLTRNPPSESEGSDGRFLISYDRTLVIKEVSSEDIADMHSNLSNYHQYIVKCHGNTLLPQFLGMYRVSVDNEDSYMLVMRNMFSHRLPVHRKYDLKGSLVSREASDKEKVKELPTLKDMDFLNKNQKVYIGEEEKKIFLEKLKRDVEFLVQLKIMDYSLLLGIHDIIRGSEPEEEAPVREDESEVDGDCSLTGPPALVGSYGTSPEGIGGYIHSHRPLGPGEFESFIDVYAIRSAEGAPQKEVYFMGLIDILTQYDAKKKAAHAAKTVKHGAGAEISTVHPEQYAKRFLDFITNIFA
# Experiment: Enzyme Binding Assay (KINOMEscan): active site-directed competition binding to an immobilized ligand
# Parameters: purchased Eurofins DiscoverX, San Diego, CA 87-0007-1094
# Details: 11-point dose response, duplicate, top concentration 5 micromolar; read-out: Pip4k2c Kd: IC50
# Description: Example B-1: Enzyme Binding Assays (KINOMEscan)
# PIP4K2C binding constants disclosed herein were determined using the proprietary Human PIP4K2C binding assay (Catalog number 87-0007-1094, Eurofins DiscoverX, San Diego, CA). This assay measures active site-directed competition binding to an immobilized ligand (see https://doi.org/10.1038/nbt1068, herein incorporated by reference in its entirety). Experiments were conducted using an 11-point dose response curve, in duplicate, with a top starting concentration of 5 micromolar; the Levenberg-Marquardt algorithm was used to fit a Hill equation to dose-response data to calculate IC50 values (see Table 5).
row,Molecule,pIC50
1,"NC(=O)[C@@H]1CCC[C@H](Nc2ncc(Cl)c(-c3cccc(-n4ccc(F)cc4=O)c3)n2)C1 (racemic) [Compound 168, rac-(1R,3S)-3-((5-chloro-4-(3-(4-fluoro-2-oxopyridin-1 (2H)-yl)phenyl)pyrimidin-2-yl)amino)cyclohexane-1-carboxamide]",> 6.30
2,"NC(=O)[C@H]1CCC[C@@H](Nc2ncc(F)c(-c3cccc(-c4ccc(=O)[nH]c4)c3)n2)C1 (racemic) [Compound 201, cis-3-((5-fluoro-4-(3-(6-oxo-1,6-dihydropyridin-3-yl)phenyl)pyrimidin-2-yl)amino)cyclohexane-1-carboxamide]",> 6.30
3,"NC(=O)[C@H]1CCC[C@@H](Nc2ncc(Cl)c(-c3ccc(F)cc3)n2)C1 (relative stereo) [Compound 28, cis-3-((5-chloro-4-(4-fluorophenyl)pyrimidin-2-yl)amino)cyclohexane-1-carboxamide]",5.30 to 6.00
4,"CC(=O)N[C@H]1CCC[C@@H](Nc2ncc(Cl)c(-c3cccc(-c4ccccc4)c3)n2)C1 (relative stereo) [Compound 33, cis-N-(3-((4-([1,1′-biphenyl]-3-yl)-5-chloropyrimidin-2-yl)amino)cyclohexyl)acetamide]",> 6.30
5,"CC(=O)N[C@@H]1CCC[C@@H](Nc2ncc(Cl)c(-c3cccc(-c4ccccc4)c3)n2)C1 (relative stereo) [Compound 34, trans-N-(3-((4-([1,1′-biphenyl]-3-yl)-5-chloropyrimidin-2-yl)amino)cyclohexyl)acetamide]",> 6.30
6,"NC(=O)[C@@H]1CCC[C@H](Nc2ncc(F)c(-c3cccc(N4CCCC4)c3)n2)C1 (relative stereo) [Compound 36, cis-3-((5-fluoro-4-(3-(pyrrolidin-1-yl)phenyl)pyrimidin-2-yl)amino)cyclohexane-1-carboxamide]",> 6.30
7,"NC(=O)[C@@H]1CCC[C@H](Nc2ncc(F)c(-c3cccc(C4CCC4)c3)n2)C1 (relative stereo) [Compound 38, cis-3-((4-(3-cyclobutylphenyl)-5-fluoropyrimidin-2-yl)amino)cyclohexane-1-carboxamide]",> 6.30
8,"NC(=O)[C@@H]1CCC[C@H](Nc2ncc(F)c(-c3ccc(=O)n(-c4ccc(F)cc4)c3)n2)C1 (relative stereo) [Compound 41, cis-3-((5-fluoro-4-(1-(4-fluorophenyl)-6-oxo-1,6-dihydropyridin-3-yl)pyrimidin-2-yl)amino)cyclohexane-1-carboxamide]",> 6.30

# Target: T1, PIP4K2C
# Experiment: HiBiT PIP4K2C degradation assay in MOLT-4 cells (endogenous PIP4K2C C-terminally tagged with HiBiT)
# Type: cell-based
# Parameters: untagged in primary human PBMCs and monocyte-derived dendritic cells
# Details: 6 hours of incubation time, rather than 24 hours; MOLT-4, top concentration 10 micromolar; read-out: HiBIT-degradation MOLT4 PIP4k2C DC50 (6 hours, marked *)
# Outline: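 MOLT-4 knock-in line, HiBiT on PIP4K2C C-terminus; 22,500 cells/well; 10-pt 3-fold titration from 10 micromolar, n=2; 24 h or 6 h, 37 C, 5% CO2; Nano-Glo HiBiT lytic luminescence; DC50 via Hill equation.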
row,Molecule,DC50
1,"O=C1CC[C@@H](Nc2ccc(C3CCN([C@H]4CC[C@H](C(=O)N[C@H]5CC[C@H](Nc6ncc(F)c(-c7cccc(-n8ccccc8=O)c7)n6)CC5)CC4)CC3)c(F)c2)C(=O)N1 [Compound 706, (1R,4R)-4-(4-(4-(((R)-2,6-dioxopiperidin-3-yl)amino)-2-fluorophenyl)piperidin-1-yl)-N-((1r,4R)-4-((5-fluoro-4-(3-(2-oxopyridin-1(2H)-yl)phenyl)pyrimidin-2-yl)amino)cyclohexyl)cyclohexane-1-carboxamide]",< 0.5 µM
2,"trans-(1r,4R)-4-(4-(4-((2,6-dioxopiperidin-3-yl)amino)-2-fluorophenyl)piperidin-1-yl)-N-((1r,4R)-4-((5-fluoro-4-(6-(2-oxo-1,3-oxazinan-3-yl)pyridin-2-yl)pyrimidin-2-yl)amino)cyclohexyl)cyclohexane-1-carboxamide [Compound 539]",> 5 µM

# Same assay, conditions: 24 hours incubation, MOLT-4, top concentration 10 micromolar; read-out: HiBIT-degradation MOLT4 PIP4k2C 24 hours DC50
row,Molecule,DC50
1,"O=C1CCC(N2Cc3cc(C4CCN(C5CCCN(CC(=O)N6CCC(Nc7ncc(Cl)c(-c8cccc(-c9ccc(F)cc9)c8)n7)CC6)C5)CC4)ccc3C2=O)C(=O)N1 (centres unmarked) [Compound 705, 3-(5-(1′-(2-(4-((5-chloro-4-(4′-fluoro-[1,1′-biphenyl]-3-yl)pyrimidin-2-yl)amino)piperidin-1-yl)-2-oxoethyl)-[1,3′-bipiperidin]-4-yl)-1-oxoisoindolin-2-yl)piperidine-2,6-dione]",< 0.5 µM
